According to patent publication US6545182B2, “Methods and compositions for modulating alpha adrenergic receptor activity” (Allergan Sales, Inc., priority 2000, dated 2003):

Key:
Assay type in all cases: cell-based
[1] = target: T1, alpha 2A adrenergic receptor (Homo sapiens, UniProt P08913); assay: RSAT (Receptor Selection and Amplification Technology) assay, alpha 2A; settings: for EC50: NIH-3T3 cells cotransfected with receptor and Gq/i5; for efficacy or intrinsic activity (value in parentheses) Alpha 2A: ratio of maximal effect to that of standard full agonist brimonidine
T1 construct: expressed in transfected cells; host or cells: NIH-3T3 cells, transient cotransfection by calcium phosphate
T1 sequence (P08913 1-465): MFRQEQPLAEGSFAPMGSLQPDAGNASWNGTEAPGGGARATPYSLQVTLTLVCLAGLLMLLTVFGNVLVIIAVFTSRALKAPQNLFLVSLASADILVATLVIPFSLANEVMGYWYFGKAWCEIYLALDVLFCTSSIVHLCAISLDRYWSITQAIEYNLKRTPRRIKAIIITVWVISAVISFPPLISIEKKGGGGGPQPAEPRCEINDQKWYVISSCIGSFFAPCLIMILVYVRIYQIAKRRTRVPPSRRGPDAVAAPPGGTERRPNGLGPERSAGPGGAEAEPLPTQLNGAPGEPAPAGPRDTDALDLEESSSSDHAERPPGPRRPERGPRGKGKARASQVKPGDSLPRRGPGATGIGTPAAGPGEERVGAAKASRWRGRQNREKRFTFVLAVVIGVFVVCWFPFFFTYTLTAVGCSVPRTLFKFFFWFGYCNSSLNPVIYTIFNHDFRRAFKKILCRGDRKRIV
Method: (§1) Activity was measured using the RSAT (Receptor Selection and Amplification Technology) assay, developed by Receptor Technologies, Inc. of Winooski, Vt. (now Acadia Pharmaceuticals of San Diego, Calif.), adapted for use with recombinant alpha2 adrenergic receptors in collaboration with Allergan. The assay measures receptor-mediated loss of contact inhibition that results in selective proliferation of receptor-containing cells in a mixed population of confluent cells. The increase in cell number is assessed with an appropriate transfected marker gene such as β-galactosidase, the activity of which can be easily measured in a 96-well format. Receptors that activate the G protein, Gq, elicit this response. Alpha2 receptors, which normally couple to Gi, activate the RSAT response when coexpressed with a hybrid Gq protein that has a Gi receptor recognition domain, called Gq/i5.
(§2) The assay is conducted as follows. NIH-3T3 cells are plated at a density of 2×10^6 cells in 15 cm dishes and maintained in Dulbecco's modified Eagle's medium supplemented with 10% calf serum. One day later, cells are cotransfected by calcium phosphate precipitation with mammalian expression plasmids encoding p-SV-β-galactosidase (5-10 μg), receptor (1-2 μg) and G protein (1-2 μg). 40 μg salmon sperm DNA may also be included in the transfection mixture to increase transfection efficiency. Fresh media is added on the following day and 1-2 days later, cells are harvested and frozen in 50 assay aliquots. Transfectant cells are thawed and 100 μl added to 100 μl aliquots of various concentrations of drugs in triplicate in 96-well dishes. Incubations continue 72-96 hr at 37°. After washing with phosphate-buffered saline, β-galactosidase enzyme activity is determined by adding 200 μl of the chromogenic substrate (consisting of 3.5 mM o-nitrophenyl-β-D-galactopyranoside and 0.5% of the non-ionic surfactant nonidet P-40 in phosphate buffered saline), incubating overnight at 30° and measuring optical density at 420 nm. The absorbency is a measure of enzyme activity, which depends on cell number and reflects a receptor-mediated cell proliferation. The EC50 and maximal effect of each drug at each alpha2 receptor is determined. The efficacy or intrinsic activity is calculated as a ratio of the maximal effect of the drug to the maximal effect of a standard full agonist for each receptor subtype. Brimonidine, also called UK14304, is used as the standard agonist for the alpha2A, alpha2B and alpha2C receptors. The RSAT assay is also discussed in Messier et al. (1995) High throughput assays of cloned adrenergic, muscarinic, neurokinin and neurotrophin receptors in living mammalian cells, Pharmacol. Toxicol. 76:308-11; see also Conklin et al. (1993) Substitution of three amino acids switches receptor specificity of Gqα to that of Giα, Nature 363:274-6; Both of these papers are incorporated by reference herein.

[2] = target: T2, alpha 2B adrenergic receptor (Homo sapiens, UniProt P18089); assay: RSAT (Receptor Selection and Amplification Technology) assay, alpha 2B; settings: for EC50: NIH-3T3 cells cotransfected with receptor and Gq/i5; for efficacy or intrinsic activity (value in parentheses) Alpha 2B: ratio of maximal effect to that of standard full agonist brimonidine
T2 construct: expressed in transfected cells; host or cells: NIH-3T3 cells, transient cotransfection by calcium phosphate
T2 sequence (P18089 1-450): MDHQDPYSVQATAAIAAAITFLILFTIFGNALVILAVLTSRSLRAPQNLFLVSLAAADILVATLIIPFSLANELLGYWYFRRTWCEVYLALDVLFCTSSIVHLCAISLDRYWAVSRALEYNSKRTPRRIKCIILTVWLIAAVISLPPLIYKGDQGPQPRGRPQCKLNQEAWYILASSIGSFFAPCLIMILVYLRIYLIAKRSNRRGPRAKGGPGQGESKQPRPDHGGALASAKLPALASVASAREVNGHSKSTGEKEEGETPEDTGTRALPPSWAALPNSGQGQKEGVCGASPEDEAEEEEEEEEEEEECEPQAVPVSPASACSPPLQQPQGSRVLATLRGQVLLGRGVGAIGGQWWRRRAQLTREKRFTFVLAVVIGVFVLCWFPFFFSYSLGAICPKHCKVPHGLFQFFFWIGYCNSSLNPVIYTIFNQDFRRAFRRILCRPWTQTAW
Method: as §1, §2

[3] = target: T3, alpha 2C adrenergic receptor (Homo sapiens, UniProt P18825); assay: RSAT (Receptor Selection and Amplification Technology) assay, alpha 2C; settings: for EC50: NIH-3T3 cells cotransfected with receptor and Gq/i5; for efficacy or intrinsic activity (value in parentheses) Alpha 2C: ratio of maximal effect to that of standard full agonist brimonidine
T3 construct: expressed in transfected cells; host or cells: NIH-3T3 cells, transient cotransfection by calcium phosphate
T3 sequence (P18825 1-462): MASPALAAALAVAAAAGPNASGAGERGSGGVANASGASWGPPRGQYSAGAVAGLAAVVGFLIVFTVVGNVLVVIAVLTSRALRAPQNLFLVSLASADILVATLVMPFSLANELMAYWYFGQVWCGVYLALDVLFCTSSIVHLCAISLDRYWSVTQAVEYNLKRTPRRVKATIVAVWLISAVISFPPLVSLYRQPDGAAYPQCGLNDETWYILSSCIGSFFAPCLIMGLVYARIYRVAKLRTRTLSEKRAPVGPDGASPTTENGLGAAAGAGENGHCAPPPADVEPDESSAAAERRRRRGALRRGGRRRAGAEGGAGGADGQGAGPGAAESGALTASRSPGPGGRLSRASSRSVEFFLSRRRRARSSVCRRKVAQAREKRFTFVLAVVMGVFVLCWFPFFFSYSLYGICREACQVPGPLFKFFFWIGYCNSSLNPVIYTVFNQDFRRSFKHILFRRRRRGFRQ
Method: as §1, §2

| EC50 [1] | EC50 [2] | efficacy or intrinsic activity (value in parentheses) Alpha 2B [2] | EC50 [3] | efficacy or intrinsic activity (value in parentheses) Alpha 2C [3] | efficacy or intrinsic activity (value in parentheses) Alpha 2A [1] | SMILES |
| --- | --- | --- | --- | --- | --- | --- |
| ≥ 210000 nM | 243 nM | 0.9 | 2370 nM | 0.51 | – | OCCNC(=S)NCc1c(F)c(F)cc(F)c1F |
| ≥ 210000 nM | 10 nM | 0.8 | 273 nM | 0.4 | – | OCCNC(=S)NCc1ccccc1Br |
| ≥ 210000 nM | 174 nM | 0.55 | ≥ 210000 nM | – | – | OCCNC(=S)NCc1c(F)cccc1Cl |
| ≥ 210000 nM | 37 nM | 0.7 | 632 nM | 0.3 | – | OCCNC(=S)NCc1cccc(C(F)(F)F)c1F |
| ≥ 210000 nM | 37.5 nM | 1.02 | 181 nM | 0.62 | – | Cc1cc(Cl)cc(CNC(=S)NCCO)c1F |
| ≥ 210000 nM | 70 nM | 0.49 | ≥ 210000 nM | – | – | OCCNC(=S)NCc1c(Br)ccc(I)c1F |
| ≥ 210000 nM | 2360 nM | 0.73 | ≥ 210000 nM | – | – | OCCNC(=S)NCc1c(F)c(F)c(F)c(F)c1F |
| ≥ 210000 nM | 235 nM | 0.92 | 406 nM | 0.43 | – | COc1cccc(F)c1CNC(=S)NCCO |
| ≥ 210000 nM | 3 nM | 0.99 | 54.5 nM | 0.33 | – | OCCNC(=S)NCc1cccc(Cl)c1Cl |
| 63 nM | 30 nM | 1.16 | 232 nM | 0.58 | 0.42 | OCCNC(=S)NCc1cccc(I)c1 |
| ≥ 210000 nM | 138 nM | 1.01 | 786 nM | 0.66 | – | OCCNC(=S)NCc1ccc(F)c(Br)c1F |
| ≥ 210000 nM | 20 nM | 1.0 | 137 nM | 0.63 | – | OCCNC(=S)NCc1cc(F)ccc1Br |
| 930 nM | 9 nM | 0.96 | 45 nM | 0.78 | 0.39 | COc1ccc(F)cc1CNC(=S)NCCO |

The next lines start with the compound.

| SMILES | EC50 [1] | EC50 [2] | efficacy or intrinsic activity (value in parentheses) Alpha 2B [2] | EC50 [3] | efficacy or intrinsic activity (value in parentheses) Alpha 2C [3] | efficacy or intrinsic activity (value in parentheses) Alpha 2A [1] |
| --- | --- | --- | --- | --- | --- | --- |
| OCCNC(=S)NCc1c(F)cccc1I | ≥ 210000 nM | 141 nM | 1.08 | > 2000 nM | – | – |
| COc1cccc(CNC(=S)NCCO)c1 | ≥ 210000 nM | 898 nM | 0.40 | ≥ 210000 nM | – | – |
| OCCNC(=S)NCc1ccccc1I | ≥ 210000 nM | 21 nM | 1.26 | 226 nM | 0.7 | – |
| OCCNC(=S)NCc1cccc(Cl)c1 | ≥ 210000 nM | 16 nM | 0.7 | ≥ 210000 nM | – | – |
| OCCNC(=S)NCc1ccc(F)cc1Cl | ≥ 210000 nM | 579 nM | 0.75 | ≥ 210000 nM | – | – |
| Cc1cc(Cl)c(F)c(CNC(=S)NCCO)c1 | 546 nM | 62 nM | 1.06 | 278 nM | 0.66 | 0.31 |
| OCCNC(=S)NCc1cc(I)ccc1F | ≥ 210000 nM | 49 nM | 0.76 | 322 nM | 0.68 | – |
| COc1c(F)cccc1CNC(=S)NCCO | ≥ 210000 nM | 169 nM | 0.95 | 843 nM | 0.38 | – |
| OCCNC(=S)NCc1cc(Br)cc(Cl)c1F | ≥ 210000 nM | 117 nM | 1.13 | > 2000 nM | – | – |
| OCCNC(=S)NCc1cccc(Cl)c1F [drawing 20] | ≥ 210000 nM | 16 nM | 0.82 | 457 nM | 0.37 | – |
| OCCNC(=S)NCc1c(F)ccc(Cl)c1F | ≥ 210000 nM | 98 nM | 0.83 | > 2000 nM | – | – |
| Cc1ccccc1CNC(=S)NCCO | ≥ 210000 nM | 174 nM | 0.7 | ≥ 210000 nM | – | – |
| OCCNC(=S)NCc1cc(Br)ccc1F | ≥ 210000 nM | 36 nM | 0.97 | 459 nM | 0.58 | – |
| OCCNC(=S)NCc1ccc(F)c(F)c1F | ≥ 210000 nM | 482 nM | 0.76 | ≥ 210000 nM | – | – |
| COc1cccc(CNC(=S)NCCO)c1F | > 2000 nM | 429 nM | 1.04 | > 3000 nM | – | – |
| OCCNC(=S)NCc1c(F)cc(F)c(Cl)c1F | ≥ 210000 nM | 281 nM | 0.58 | ≥ 210000 nM | – | – |
| OCCNC(=S)NCc1cc(F)ccc1O | ≥ 210000 nM | 27 nM | 1.20 | 144 nM | 0.74 | – |
